From US20260083865A1, “PROSTATE SPECIFIC MEMBRANE ANTIGEN (PSMA) LIGANDS AND USE THEREOF” (priority 2022, published 2026)
Where two headings read alike, the source gives them in different places. Numbered stars: 1 amine (or outer) side, 2 acyl side, 3 side chain; on linkers, the order of the positions; unused ones are H or OH. Bridge positions count the residues as written; N and C are the ends. Square brackets hold non-standard residues; d marks the D form. Peptide text beside a SMILES is read from it. * marks the point of attachment. DOTA = O=C(O)CN1CCN(CC(=O)O)CCN(CC(=O)*)CCN(CC(=O)O)CC1; Phe(4-Cl) = N[C@@H](Cc1ccc(Cl)cc1)C(=O)O; Arg(Me) = CNC(=N)NCCC[C@H](N)C(=O)O; tBuAla = CC(C)(C)C[C@H](N)C(=O)O; X1 = O=C(CC1CCN([*:1])CC1)[*:2]; Lys(Me) = CNCCCC[C@H](N)C(=O)O; Tle = CC(C)(C)[C@H](N)C(=O)O; Aib = CC(C)(N)C(=O)O; X8 = O=C(CC1CCNCC1)*

Columns and labels:
[1] = target: T1, PSMA-expressing C4-2 cells (Homo sapiens, UniProt Q04609); assay: FACS binding assay (competition with 50 nM PSM-0183); details: read-out: pIC50 [C4-2] CAT (converted)
T1 construct: PSMA-expressing C4-2 cells (ATCC, Cat. No. CRL-3314) were cultured in RPMI-1640; host or cells: C4-2 cells
Protocol: In order to determine binding of compounds according to the present invention to PSMA-expressing cells, a FACS binding assay was established.
PSMA-expressing C4-2 cells (ATCC, Cat. No. CRL-3314) were cultured in RPMI-1640 (Pan Biotech, Cat. No. P04-18050) including 10% fetal calf serum (Biochrom) and 100 U/ml penicillin and 100 μg/mL streptomycin (Sigma, Cat. No. P0781). Cells were detached with Accutase (Biolegend, Cat. No. BLD-423201) and washed in FACS buffer (PBS (Sigma, Cat. No. D8537) including 1% fetal calf serum). Cells were diluted in FACS buffer to a final concentration of 500,000 cells per mL. 200 μL of the cell suspension were transferred to a u-shaped non-binding 96-well plate (Greiner Bio-One, Cat. No. 650901) and cells were washed in ice-cold FACS buffer.
For IC50 determination, C4-2 cells were incubated with 50 nM PSM-0183 (Ac-Thr-Aib-Phe[Cys-Lys-Arg-Aib-Asn-Cys]-Tle-Thr-Asp-Ttds-Ttds-AF488N3K-NH2) in the presence of increasing concentrations of test compounds at 4° C. for 1 hour. After two wash steps with ice-cold FACS buffer, cells were analyzed in an Attune NxT flow cytometer. Median fluorescence intensities (MFI) of the FITC/AF488-channel were calculated by Attune NxT software. MFI values were plotted against peptide concentration and four parameter logistic (4PL) curve fitting and IC50/pIC50 calculations were performed using ActivityBase software (IDBS).

[2] = target: T2, Fc-fusion protein of human PSMA (hPSMA-Fc) (Homo sapiens, UniProt Q04609); assay: Surface plasmon resonance assay (Biacore T200, single cycle kinetic); format: binding; details: read-out: pKD CAT (converted)
T2 construct: purchased Acro Biosystems PSA-H5264
Protocol: Surface plasmon resonance (SPR) studies were performed using a Biacore™ T200 SPR system. Briefly, polarized light is directed towards a gold-labeled sensor surface, and minimum intensity reflected light is detected. The angle of reflected light changes as molecules bind and dissociate.
Fc-fusion protein of human PSMA (hPSMA-Fc, Acro Biosystems, Cat #PSA-H5264) was captured on a Fc-capture chip (Biacore™ CM5 sensor chip coated with ˜300 RU of an Fc-binding peptide). hPSMA-Fc was diluted in Running Buffer (HBST, 0.1% DMSO) to a final concentration of 100 nM and then flushed over the Fc-capture chip to immobilized ˜1000 RUs.
Stock solutions of test compounds were prepared by dissolving each compound in DMSO. DMSO stock solution were diluted 1:1000 in Running Buffer without DMSO. Further sequential dilutions were made with Running Buffer containing 0.1% DMSO. SPR binding analyses were performed in Single Cycle Kinetic (SCK) mode at 25° C. Flow cell coated with the Fc-binding peptide only served as reference flowcell. After each SCK run, hPSMA-Fc was removed with 10 mM glycine buffer, pH 1.5.
In between every three SCK measurements, a blank run with Running Buffer instead of test compound was included to correct for baseline drifts (double blanking method).
Table 5 describes the protocol steps for Fc-fusion target capturing and assessment of the binding kinetics.
For each test compound, SPR raw data in the form of resonance units (RU) were plotted as sensorgrams using the Biacore™ T200 control software. The signal from the blank sensorgram was subtracted from that of the test compound sensorgram (blank corrected). The blank corrected sensorgram was corrected for baseline drift by subtracting the sensorgram of a SCK run without the test compound (running buffer only). The dissociation constant (KD) was calculated from Blank-normalized SPR data using the 1:1 Langmuir binding model from the Biacore™ Insight Evaluation software. The pKD value (negative decadic logarithm of dissociation constant) was calculated using Microsoft Excel.

[3] = FACS binding, C4-2 cells, category
[4] = pIC50 category of FACS binding, C4-2 cells
[5] = pKD category for PSMA SPR activity assay, hPSMA-Fc, 25° C.

T1 sequence (Q04609 whole entry): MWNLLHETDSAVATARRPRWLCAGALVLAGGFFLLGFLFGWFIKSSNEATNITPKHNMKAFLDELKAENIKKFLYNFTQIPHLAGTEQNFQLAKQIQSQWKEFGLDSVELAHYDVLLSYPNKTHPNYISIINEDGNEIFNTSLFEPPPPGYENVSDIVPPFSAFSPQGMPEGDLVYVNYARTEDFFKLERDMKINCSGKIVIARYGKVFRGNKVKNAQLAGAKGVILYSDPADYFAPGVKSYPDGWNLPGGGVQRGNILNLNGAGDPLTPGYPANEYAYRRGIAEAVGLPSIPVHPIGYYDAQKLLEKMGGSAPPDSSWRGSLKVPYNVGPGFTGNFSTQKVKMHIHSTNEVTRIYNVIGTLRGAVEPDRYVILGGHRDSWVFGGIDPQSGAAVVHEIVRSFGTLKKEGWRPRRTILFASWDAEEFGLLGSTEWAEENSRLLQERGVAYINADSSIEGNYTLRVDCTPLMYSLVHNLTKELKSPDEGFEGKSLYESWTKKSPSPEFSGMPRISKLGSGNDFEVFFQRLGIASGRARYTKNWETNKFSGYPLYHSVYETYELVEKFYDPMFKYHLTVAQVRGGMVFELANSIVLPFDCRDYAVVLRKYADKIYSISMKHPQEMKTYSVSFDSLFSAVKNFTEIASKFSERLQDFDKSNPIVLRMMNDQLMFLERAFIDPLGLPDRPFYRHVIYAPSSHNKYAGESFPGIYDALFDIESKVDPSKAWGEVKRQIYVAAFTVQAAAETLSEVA
T2 sequence (Q04609 44-750 limits assumed): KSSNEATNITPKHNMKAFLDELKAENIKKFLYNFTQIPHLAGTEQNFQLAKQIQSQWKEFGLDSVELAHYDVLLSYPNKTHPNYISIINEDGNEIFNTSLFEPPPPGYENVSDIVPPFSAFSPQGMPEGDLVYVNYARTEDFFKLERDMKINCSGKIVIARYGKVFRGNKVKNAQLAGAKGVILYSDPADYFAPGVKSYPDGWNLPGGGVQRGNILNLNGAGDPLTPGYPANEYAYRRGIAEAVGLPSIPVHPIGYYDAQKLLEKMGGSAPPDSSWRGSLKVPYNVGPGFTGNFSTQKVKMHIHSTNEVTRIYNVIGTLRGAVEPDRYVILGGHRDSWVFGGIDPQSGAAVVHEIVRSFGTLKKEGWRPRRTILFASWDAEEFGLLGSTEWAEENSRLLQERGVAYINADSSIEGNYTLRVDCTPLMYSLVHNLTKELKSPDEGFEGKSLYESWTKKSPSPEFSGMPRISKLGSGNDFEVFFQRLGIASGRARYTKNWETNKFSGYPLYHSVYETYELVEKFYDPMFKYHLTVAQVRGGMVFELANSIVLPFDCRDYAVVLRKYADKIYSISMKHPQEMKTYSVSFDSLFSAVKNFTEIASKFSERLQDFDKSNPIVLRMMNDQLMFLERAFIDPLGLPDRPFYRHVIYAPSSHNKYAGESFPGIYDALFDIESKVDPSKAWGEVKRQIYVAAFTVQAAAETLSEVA

IC50 [1, 3]	Kd ([2]; PSMA SPR assay, category)	IC50 [1, 4]	Kd [2, 5]	other results	Compound
< 200 nM	12.6 to 126 nM	–	–	–	CC(=O)N[C@H](C(=O)NC(C)(C)C(=O)N[C@@H](Cc1ccccc1)C(=O)N[C@H]1CSSC[C@@H](C(=O)N[C@@H](CC(C)(C)C)C(N)=O)NC(=O)[C@H](CC(N)=O)NC(=O)C(C)(C)NC(=O)[C@H](CCCNC(=N)N)NC(=O)[C@H](CCCCN)NC1=O)[C@@H](C)O [PSM-0560, Ac-Thr-Aib-Phe-[Cys-Lys-Arg-Aib-Asn-Cys]-Npg-NH2] (Ac-T[Aib]FCKR[Aib]NC[tBuAla]-NH2; disulfide 4-9)
–	–	–	–	IC50 ([1]; FACS binding, PSMA-expressing C4-2 cells, pIC50 category): < 200 nM; Kd ([2]; PSMA SPR assay, hPSMA-Fc, 25° C., pKD category): < 12.6 nM	CC(=O)N[C@H](C(=O)NC(C)(C)C(=O)N[C@@H](Cc1ccc(Cl)cc1)C(=O)N[C@H]1CSSC[C@@H](C(=O)N[C@H](C(=O)N[C@H](C(N)=O)[C@@H](C)O)C(C)(C)C)NC(=O)[C@H](CC(N)=O)NC(=O)C(C)(C)NC(=O)[C@H](CCCNC(=N)N)NC(=O)[C@H](CCCCN)NC1=O)[C@@H](C)O [PSM-0336, Ac-Thr-Aib-Pcf-[Cys-Lys-Arg-Aib-Asn-Cys]-Tle-Thr-NH2] (Ac-T[Aib][Phe(4-Cl)]CKR[Aib]NC[Tle]T-NH2; disulfide 4-9)
1260 to 3160 nM	> 501 nM	–	–	–	CNCCCC[C@@H]1NC(=O)[C@@H](NC(=O)[C@H](Cc2ccc(Cl)cc2)NC(=O)C(C)(C)NC(=O)[C@@H](NC(=O)CC2CCN(C(=O)CN3CCN(CC(=O)O)CCN(CC(=O)O)CCN(CC(=O)O)CC3)CC2)[C@@H](C)O)CSSC[C@@H](C(=O)O)NC(=O)[C@H](CC(N)=O)NC(=O)C(C)(C)NC(=O)[C@H](CCCNC(=N)NC)NC1=O [PSM-0594, DOTA-Cmp-Thr-Aib-Pcf-[Cys-Lys(Me)-Arg(Me)-Aib-Asn-Cys]-OH] ({DOTA}-[X1]T[Aib][Phe(4-Cl)]C[Lys(Me)][Arg(Me)][Aib]NC-OH; disulfide 5-10)
–	–	< 200 nM	< 12.6 nM	–	C[C@@H](O)[C@H](NC(=O)CC1CCNCC1)C(=O)NC(C)(C)C(=O)N[C@@H](Cc1ccccc1)C(=O)N[C@H]1CSSC[C@@H](C(=O)N[C@H](C(=O)N[C@H](C(=O)N2CCC(CC(=O)N[C@H](CCCCNC(=O)CN3CCN(CC(=O)O)CCN(CC(=O)O)CCN(CC(=O)O)CC3)C(N)=O)CC2)[C@@H](C)O)C(C)(C)C)NC(=O)[C@H](CC(N)=O)NC(=O)C(C)(C)NC(=O)[C@H](CCCNC(=N)N)NC(=O)[C@H](CCCCN)NC1=O [PSM-0378, H-Cmp-Thr-Aib-Phe-[Cys-Lys-Arg-Aib-Asn-Cys]-Tle-Thr-Cmp-lys(DOTA)-NH2] (X8-T[Aib]FCKR[Aib]NC[Tle]T[X1][dK](DOTA)-NH2; disulfide 4-9)
–	–	< 200 nM	< 12.6 nM	–	CNCCCC[C@@H]1NC(=O)[C@@H](NC(=O)[C@H](Cc2ccc(Cl)cc2)NC(=O)C(C)(C)NC(=O)[C@@H](NC(=O)CC2CCN(C(=O)CN3CCN(CC(=O)O)CCN(CC(=O)O)CCN(CC(=O)O)CC3)CC2)[C@@H](C)O)CSSC[C@@H](C(=O)N[C@H](C(N)=O)C(C)(C)C)NC(=O)[C@H](CC(N)=O)NC(=O)C(C)(C)NC(=O)[C@H](CCCNC(=N)NC)NC1=O [PSM-0380, DOTA-Cmp-Thr-Aib-Pcf-[Cys-Lys(Me)-Arg(Me)-Aib-Asn-Cys]-Tle-NH2] ({DOTA}-[X1]T[Aib][Phe(4-Cl)]C[Lys(Me)][Arg(Me)][Aib]NC[Tle]-NH2; disulfide 5-10)
